Source: patent publication US20210290676A1, “IMPROVING THE EFFICACY AND SAFETY OF ADOPTIVE CELLULAR THERAPIES” (University of Southern California, priority 2018, published 2021)

Experiments:
Format in all cases: cell-based, human
[1] = tested on: Pgp+ (DiOC2(3)-dye effluxing) T cells; test: DiOC2(3) dye efflux flow cytometry of inhibitor-treated T cells; conditions: treatment for 13 days, IL2 + CD3 and CD28 antibodies
Description: (§1) The use of P-glycoprotein (Pgp)-mediated efflux of DiOC2(3) to isolate stem like T cells for adoptive cellular therapy has been described in application no. […] In the following examples, DiOC2(3) staining was used to study the effect of different inhibitors on generation of stem like T cells.
(§2) DAY 0: Blood was obtained from unidentified donor. After RBC lysis, PBMC were collected using Ficoll-Hypaque separation. […] T cells were cultured in three different conditions: • 1. XVIVO 15 medium (Lonza) with IL2 50 IU/ml, CD3 antibody (30 ng/ml) and CD28 antibody (30 ng/ml). • 2. XVIVO 15 medium (Lonza) with CD3 antibody (30 ng/ml) and CD28 antibody (30 ng/ml). • 3. XVIVO 15 medium (Lonza) with IL2 50 IU/ml DAY 1: Cells were plated in a 6-well plate at a density of 1 million cells in 2 ml/of media (as described above) and treated with different inhibitors
(§3) The cell growth medium was changed in 6-well plates and fresh drugs were added at same concentration for one more week.
(§4) […] (DAY 11): Culture medium was changed and fresh drugs were added in 6-well plates.
(§5) Subsequently, cells were washed with RPMI medium and dye was effluxed at 37° C. for 90 min. Cells were washed with […], stained with CD62L-APC (5 μl/100 μl/sample) at 4° C. for 1 h, washed twice with PBS+1% FBS and analyzed on flow cytometer to check if these drugs treatment leads to increase in Pgp+/CD62L positive population.
(§6) Day 0: Blood was obtained from unidentified donor. After RBC lysis, PBMC were collected using Ficoll-Hypaque separation. 200 million T cells were isolated from PBMCs using CD3 microbeads. T cells were cultured overnight in XVIVO 15 medium (Lonza) with IL2 (50 IU/ml), 30 ng/ml of CD3 and CD28 antibodies
(§7) Day 1: Cells were plated in 24-well plates at a density of 0.3 million cells/ml in each well and treated with different drugs.
(§8) On day 7, culture medium was replaced with fresh medium with fresh drugs.
(§9) On day 13, culture medium was replaced with fresh medium and fresh drugs. Half of the cells were transferred to 6-well plates.
(§10) Day 14: An aliquot of cells with all the treatments listed above (for 13 days) was used to stain the cells with DiOC2(3) (60 ng/ml in RPMI medium) at 4° C. for 40 min, washed with RPMI medium, DiOC2(3) dye was effluxed at 37° C. for 90 min, washed with PBS+1% FBS, stained with CD62L-APC antibody. CD62L is a marker for resting T cells. (5 μl/100 μl/sample) at 4° C. for 1 h, washed twice with PBS+1% FBS and analyzed on flow cytometer to check if these drugs are affecting the dye-effluxing or Pgp+ (i.e., DiOC2(3)-dull) T-cell population.

[2] = tested on: Pgp+ (DiOC2(3)-dye effluxing cells) and CD62L+ T cells; test: DiOC2(3) dye efflux plus CD62L-APC staining, flow cytometry of inhibitor-treated T cells; conditions: treatment for 13 days, IL2 + CD3 and CD28 antibodies
Description: as §1, §2, §3, §4, §5, §6, §7, §8, §9, §10

[3] = tested on: CD45RA+CCR7+CD62L+ T cells; test: Flow cytometry for CD45RA, CCR7 and CD62L on inhibitor-treated T cells (all T cells); conditions: cells cultured for 14 days
Description: as §2
(§11) A second aliquot of the cells cultured for 13 days with all the treatments listed above (1-21) was washed with PBS+1% FBS, stained with CD8-PerCP, CD45RA-FITC, CCR7-PE and CD62L-APC (5% Y/100 μl/sample for each of 4 antibodies) at 4° C. for 1 h, washed twice with PBS+100 FBS and analyzed on flow cytometer to check if these drugs are enriching T stem cells showing surface expression of CD8+CD45RA+CCR7+CD62L+.
as §6, §7, §8, §9
as §11, with “14” for “13”, “above” for “above (1-21)”, “(5 ul/100 ul/sample” for “(5% Y/100 μl/sample”, “PBS+1%” for “PBS+100”, “enriching for” for “enriching”, “T” for “T stem”

[4] = tested on: CD8+CD45RA+CCR7+CD62L+ T cells; test: Flow cytometry for CD8, CD45RA, CCR7 and CD62L on inhibitor-treated T cells; conditions: cells cultured for 14 days
Description: as §2, §11, §6, §7, §8, §9
as §11, with “14” for “13”, “above” for “above (1-21)”, “(5 ul/100 ul/sample” for “(5% Y/100 μl/sample”, “PBS+1%” for “PBS+100”, “enriching for” for “enriching”, “T” for “T stem”

Structure (SMILES)	p2: pgp+ from Live cells ([1]; 100 nM)	p2: pgp+ from Live cells ([1]; 500 nM)	p5: double +ve pgp+ and CD62L-APC+ from Live cells ([2]; 100 nM)	p5: double +ve pgp+ and CD62L-APC+ from Live cells ([2]; 500 nM)	GATE P6 CD45RA(FITC)+, CCR7 (PE)+, CD62L(APC) ([3]; 100 nM) [%]	GATE P6 CD45RA(FITC)+, CCR7 (PE)+, CD62L(APC) ([3]; 500 nM) [%]	GATE P4 CD8(PerCP)+, CD45RA(FITC)+, CCR7 (PE)+, CD62L(APC) ([4]; 100 nM) [%]	GATE P4 CD8(PerCP)+, CD45RA(FITC)+, CCR7 (PE)+, CD62L(APC) ([4]; 500 nM) [%]	p2: pgp+ from Live cells ([1]; 1 μM)	p5: double +ve pgp+ and CD62L-APC+ from Live cells ([2]; 1 μM)	GATE P6 CD45RA(FITC)+, CCR7 (PE)+, CD62L(APC) ([3]; 1 μM) [%]	GATE P4 CD8(PerCP)+, CD45RA(FITC)+, CCR7 (PE)+, CD62L(APC) ([4]; 1 μM) [%]	p2: pgp+ from Live cells ([1]; 200 nM)	p5: double +ve pgp+ and CD62L-APC+ from Live cells ([2]; 200 nM)	GATE P6 CD45RA(FITC)+, CCR7 (PE)+, CD62L(APC) ([3]; 200 nM) [%]	GATE P4 CD8(PerCP)+, CD45RA(FITC)+, CCR7 (PE)+, CD62L(APC) ([4]; 200 nM) [%]	p2: pgp+ from Live cells ([1]; 500 (unit not given))	p5: double +ve pgp+ and CD62L-APC+ from Live cells ([2]; 500 (unit not given))
COc1cc(-c2cn(C)c(=O)c3cnccc23)c(OC)cc1CN(C)C [B9564]	13.39	15.56	2.53	3.03	63.27	73.75	73.18	83.31										
CCc1sc(N)nc1-c1ccc(OC)cc1 [CBFB]		16.01		2.85		64.71		74.77	20.93	3.56	65.61	74.12						
CCS(=O)(=O)N1CCC([C@@H](C)n2c(C)c(C(=O)NCc3c(OC)cc(C)[nH]c3=O)c3ccccc32)CC1 [CP1169]	25.52		4.68		70.48		81.07						30.65	6.4	66.23	75.83		
COc1cc(C)[nH]c(=O)c1CNC(=O)c1c(C)n([C@H](C)C2CCOCC2)c2ccccc12 [CPI360]	25.15		5.82		70.85	69.62	81.01	81.26									35.55	11.11
CS(=O)(=O)c1ccc(-c2cnc(NCc3ccco3)n3cnnc23)cc1 [EED226]		37.6		10.41		60.45		70.21	43.53	11.82	60.45	74.83						
CCN(c1cc(C#CCN2CCOCC2)cc(C(=O)NCc2c(C)cc(C)[nH]c2=O)c1C)[C@H]1CC[C@H](N(C)CCOC)CC1 [EPZ011989]		64.39		18.77		57.62		70.63	62.54	16.8	58.31	72.83						
CC[C@H](C)n1cc(C)c2c(C(=O)NCc3c(C)cc(C)[nH]c3=O)cc(-c3ccc(N4CCNCC4)nc3)cc21 [GSK126]	36.37	26.61	8.83	8.08	67.75	67.65	76.44	79.6										
